Data from patent publication US20060154990A1, “Use of MEK inhibitors in treating abnormal cell growth” (AGOURON PHARMACEUTICALS, INC., priority 2004, published 2006).
Where “and” joins values, the source holds several entries; their conditions need not be identical. Equal entries are not always repeated. Marks after values point to notes of the source that are not given here.

Assays:
[1] = system: RXF-393 renal cell carcinoma; test: Antitumor activity in RXF-393 tumor model; assay type: in vivo, mice; conditions: oral 25 mg/kg once a day, euthanized on day 8 of dosing
clinical = conditions: human, plasma, oral
Experimental: Pharmacokinetic data are presented for the first 38 subjects.
Blood samples were collected from patients into a purple-top potassium EDTA Vacutainer tube. Following mixing with gentle inversion (8-10 times), tubes were centrifuged within 20 minutes at 1000×g for 15 minutes, to harvest plasma. Plasma samples were stored at −20° C. until analysis.
The following results are based on preliminary pharmacokinetic parameters from the 38 subjects, estimated using nominal collection times and quality-controlled, non quality-assured bioanalytical data. Pharmacokinetic parameters were determined by the non-compartmental method using WINNONLIN Professional Edition (Version 4.1). […] The maximum observed concentration (Cmax) was obtained by inspection of the concentration data. The time to reach the Cmax was the first time at which Cmax is observed and obtained by inspection of the data. The pre-dose concentration (Ctrough) was obtained by inspection of the concentration data.

[2] = system: C26 mouse colon carcinoma; test: Antitumor activity against C26 mouse colon carcinoma
[3] = C26, MTD 25 mg/kg/d oral 14 days
[4] = C26, oral BID D9-22, 1.56 mg/kg/dose
[5] = C26, oral BID D9-22, 3.125 mg/kg/dose
[6] = C26, oral BID D9-22, 6.25 mg/kg/dose
[7] = C26, oral BID D9-22, 12.5 mg/kg/dose
[8] = C26, oral BID D9-22, 12.5 mg/kg/dose (toxic)
[9] = C26, oral QD D9-22, 3.125 mg/kg/dose
[10] = C26, oral QD D9-22, 6.25 mg/kg/dose
[11] = C26, oral QD D9-22, 12.5 mg/kg/dose
[12] = C26, oral QD D9-22, 25 mg/kg/dose
[13] = C26 colon, oral 25 mg/kg once a day for 14 days
[14] = Colon26, 25 mg/kg PO QD Days 11-24 (MTD)
[15] = Colon26, 100 mg/kg IV QD Days 8-12, 15-19 (MTD)

O=C(NOC[C@H](O)CO)c1ccc(F)c(F)c1Nc1ccc(I)cc1F [Compound 1, N-[(R)-2,3-dihydroxy-propoxy]-3,4-difluoro-2-(2-fluoro-4-iodo-phenylamino)-benzamide]
CR (complete responder) [1]: 0/10 | PR (partial responder) [1]: 0/10 | Tumor Free [1]: 0/10 | half-life (clinical): 5 to 14 h | Cmax (clinical; 1 mg): 41.1 ng/mL | Tmax (clinical; 1 mg): 1 h | half-life (clinical; 1 mg): 13.9 h | Cmax (clinical; 2 mg): 152 ng/mL | Tmax (clinical; 2 mg): 1 h | AUC(0-t) (clinical; 4 mg): 1580 ng·h/mL | Cmax (clinical; 4 mg): 208 ng/mL | Tmax (clinical; 4 mg): 1 h | concentration at 21 day (clinical; 4 mg): 82 ng/mL | half-life (clinical; 4 mg): 7.6 h | Cmax (clinical; 15 mg): 706 ng/mL | Tmax (clinical; 15 mg): 1 h | half-life (clinical; 15 mg): 12.6 h | AUC(0-t) (clinical; 20 mg): 6990 ng·h/mL | Cmax (clinical; 20 mg): 766 ng/mL | Tmax (clinical; 20 mg): 2 h | concentration at 21 day (clinical; 20 mg): 440 ng/mL | half-life (clinical; 20 mg): 8.3 h | AUC(0-t) (clinical; 30 mg): 12500 ng·h/mL | Cmax (clinical; 30 mg): 1640 ng/mL | Tmax (clinical; 30 mg): 2 h | concentration at 21 day (clinical; 30 mg): 500 ng/mL | half-life (clinical; 30 mg): 4.8 h | animals showing complete response [2, 3]: 70% | animals showing either a complete or partial response [2, 3]: 100% | animals showing partial response [2, 3]: 30% | CR (complete response) [2, 4]: 4 of 5 and 4/5 | Net Log10 kill [2, 4]: 0.0 | Non-specific Deaths [2, 4]: 0/5 | PR (partial response) [2, 4]: 1/5 | T − C [2, 4]: 13.1 days | Tumor Free [2, 4]: 0/5 | CR (complete response) [2, 5]: 4/5 | Net Log10 kill [2, 5]: 0.3 | Non-specific Deaths [2, 5]: 0/5 | PR (partial response) [2, 5]: 1/5 | T − C [2, 5]: 15.2 days | Tumor Free [2, 5]: 0/5 | CR (complete response) [2, 6]: 5/5 | Net Log10 kill [2, 6]: 0.3 | Non-specific Deaths [2, 6]: 0/5 | PR (partial response) [2, 6]: 0/5 | T − C [2, 6]: 15.7 days | Tumor Free [2, 6]: 0/5 | Net Log10 kill [2, 7]: Toxic | Non-specific Deaths [2, 7]: 4/5^h | T − C [2, 7]: Toxic | Tumor Free [2, 7]: Toxic | CR (complete response) [2, 8]: 5/5 Toxic | PR (partial response) [2, 8]: 0/5 Toxic | CR (complete response) [2, 9]: 1 of 5 and 1/5 | Net Log10 kill [2, 9]: −0.1 | Non-specific Deaths [2, 9]: 0/5 | PR (partial response) [2, 9]: 4/5 | T − C [2, 9]: 12.1 days | Tumor Free [2, 9]: 0/5 | CR (complete response) [2, 10]: 3/5 | Net Log10 kill [2, 10]: 0.0 | Non-specific Deaths [2, 10]: 0/5 | PR (partial response) [2, 10]: 2/5 | T − C [2, 10]: 12.9 days | Tumor Free [2, 10]: 0/5 | CR (complete response) [2, 11]: 5/5 | Net Log10 kill [2, 11]: 0.2 | Non-specific Deaths [2, 11]: 0/5 | PR (partial response) [2, 11]: 0/5 | T − C [2, 11]: 15.0 days | Tumor Free [2, 11]: 0/5 | CR (complete response) [2, 12]: 5/5 | Net Log10 kill [2, 12]: 0.3 | Non-specific Deaths [2, 12]: 0/5 | PR (partial response) [2, 12]: 0/5 | T − C [2, 12]: 15.3 days | Tumor Free [2, 12]: 0/5 | CR (complete responder) [2, 13]: 7/10 | PR (partial responder) [2, 13]: 3/10 | T − C [2, 13]: 15.4 days | Tumor Free [2, 13]: 0/10 | Tumor growth delay ([2]; C26 tumor, 25 mg/kg oral once a day for 14 days (MTD)): 15.4 days | Total daily dose producing 70% complete tumor responses ([2]; C26 tumor, oral for 14 days): 25 mg/kg | CR [2, 14]: 10/10 | Deaths [2, 14]: 0/10 | Net Log Kill [2, 14]: 0.2 | PR [2, 14]: 0/10 | T − C [2, 14]: 12.6 days | CR [2, 15]: 9/10 | Deaths [2, 15]: 1/10 | Net Log Kill [2, 15]: 0.6 | PR [2, 15]: 1/10 | T − C [2, 15]: 15.8 days
